Results as given in the supplement of paper PMC10307832.

Columns and labels:
Experiment in all cases: relative viability (nuclei count vs DMSO), 5 days (fraction); higher = more cells survive
[1] = compound: C/C(=N\NC(=S)N1CCC1)/C2=CC=CC=N2 + CC(C)C[C@H](NC(=O)[C@H](Cc1ccccc1)NC(=O)c1cnccn1)B(O)O [Bortezomib] (partner 0.002 µM)
In short: (§1)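 A single step with final 0.05% Triton X-100, 1% formaldehyde and 1 ug/ml Hoechst fixed the cells and stained nuclei 5 days after treatment. Lung cancer cell lines in 1536-well plates had been treated by pin tool the day after seeding with one drug alone or a fixed anchor-drug dose plus five library-drug doses (not always all listed) in √10 steps, and nuclei were counted on 4× images. Relative viability is the ratio of nuclei in treated wells to nuclei in vehicle wells, taken as the median of duplicate plates.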

[2] = compound: C/C(=N\NC(=S)N1CCC1)/C2=CC=CC=N2 + CS(=O)(=O)N1CCN(Cc2cc3nc(-c4cccc5[nH]ncc45)nc(N4CCOCC4)c3s2)CC1 [Pictilisib] (partner 1 µM)
In short: as §1

[3] = compound: C/C(=N\NC(=S)N1CCC1)/C2=CC=CC=N2 + O=C(c1cc(Cc2n[nH]c(=O)c3ccccc23)ccc1F)N1CCN(C(=O)C2CC2)CC1 [Olaparib] (partner 8 µM)
In short: as §1

[4] = compound: C/C(=N\NC(=S)N1CCC1)/C2=CC=CC=N2 + CC(=O)Nc1cccc(-n2c(=O)n(C3CC3)c(=O)c3c(Nc4ccc(I)cc4F)n(C)c(=O)c(C)c32)c1 [Trametinib] (partner 0.02 µM)
In short: as §1

ChaGo-K-1
relative viability ([1]; first compound 0.05 µM): 0.285
relative viability ([1]; first compound 0.1581 µM): 0.462
relative viability ([1]; first compound 0.5 µM): 0.285
relative viability ([1]; first compound 1.581 µM): 0.221
relative viability ([1]; first compound 5 µM): 0.318
relative viability ([2]; first compound 0.05 µM): 0.233
relative viability ([2]; first compound 0.1581 µM): 0.392
relative viability ([2]; first compound 0.5 µM): 0.232
relative viability ([2]; first compound 1.581 µM): 0.237
relative viability ([2]; first compound 5 µM): 0.293
relative viability ([3]; first compound 0.05 µM): 0.137
relative viability ([3]; first compound 0.1581 µM): 0.247
relative viability ([3]; first compound 0.5 µM): 0.126
relative viability ([3]; first compound 1.581 µM): 0.138
relative viability ([3]; first compound 5 µM): 0.135
relative viability ([4]; first compound 0.05 µM): 0.147
relative viability ([4]; first compound 0.1581 µM): 0.391
relative viability ([4]; first compound 0.5 µM): 0.15
relative viability ([4]; first compound 1.581 µM): 0.133
relative viability ([4]; first compound 5 µM): 0.152

EBC-1
relative viability ([1]; first compound 0.05 µM): 0.177
relative viability ([1]; first compound 0.1581 µM): 0.226
relative viability ([1]; first compound 0.5 µM): 0.169
relative viability ([1]; first compound 1.581 µM): 0.162
relative viability ([1]; first compound 5 µM): 0.174
relative viability ([2]; first compound 0.05 µM): 0.164
relative viability ([2]; first compound 0.1581 µM): 0.205
relative viability ([2]; first compound 0.5 µM): 0.187
relative viability ([2]; first compound 1.581 µM): 0.116
relative viability ([2]; first compound 5 µM): 0.14
relative viability ([3]; first compound 0.05 µM): 0.163
relative viability ([3]; first compound 0.1581 µM): 0.164
relative viability ([3]; first compound 0.5 µM): 0.152
relative viability ([3]; first compound 1.581 µM): 0.131
relative viability ([3]; first compound 5 µM): 0.13

EKVX
relative viability ([1]; first compound 0.05 µM): 0.138
relative viability ([1]; first compound 0.1581 µM): 0.129
relative viability ([1]; first compound 0.5 µM): 0.103
relative viability ([1]; first compound 1.581 µM): 0.141
relative viability ([1]; first compound 5 µM): 0.144
relative viability ([2]; first compound 0.05 µM): 0.113
relative viability ([2]; first compound 0.1581 µM): 0.127
relative viability ([2]; first compound 0.5 µM): 0.115
relative viability ([2]; first compound 1.581 µM): 0.107
relative viability ([2]; first compound 5 µM): 0.124
relative viability ([3]; first compound 0.05 µM): 0.149
relative viability ([3]; first compound 0.1581 µM): 0.115
relative viability ([3]; first compound 0.5 µM): 0.121
relative viability ([3]; first compound 1.581 µM): 0.16
relative viability ([3]; first compound 5 µM): 0.167
relative viability ([4]; first compound 0.05 µM): 0.104
relative viability ([4]; first compound 0.1581 µM): 0.124
relative viability ([4]; first compound 0.5 µM): 0.114
relative viability ([4]; first compound 1.581 µM): 0.151
relative viability ([4]; first compound 5 µM): 0.136

EMC-BAC-2
relative viability ([1]; first compound 0.05 µM): 0.104
relative viability ([1]; first compound 0.1581 µM): 0.142
relative viability ([1]; first compound 0.5 µM): 0.149
relative viability ([1]; first compound 1.581 µM): 0.174
relative viability ([1]; first compound 5 µM): 0.16
relative viability ([2]; first compound 0.05 µM): 0.0912
relative viability ([2]; first compound 0.1581 µM): 0.166
relative viability ([2]; first compound 0.5 µM): 0.173
relative viability ([2]; first compound 1.581 µM): 0.193
relative viability ([2]; first compound 5 µM): 0.19
relative viability ([3]; first compound 0.05 µM): 0.188
relative viability ([3]; first compound 0.1581 µM): 0.22
relative viability ([3]; first compound 0.5 µM): 0.195
relative viability ([3]; first compound 1.581 µM): 0.164
relative viability ([3]; first compound 5 µM): 0.203
relative viability ([4]; first compound 0.05 µM): 0.293
relative viability ([4]; first compound 0.1581 µM): 0.282
relative viability ([4]; first compound 0.5 µM): 0.246
relative viability ([4]; first compound 1.581 µM): 0.2
relative viability ([4]; first compound 5 µM): 0.231

EPLC-272H
relative viability ([1]; first compound 0.05 µM): 0.116
relative viability ([1]; first compound 0.1581 µM): 0.155
relative viability ([1]; first compound 0.5 µM): 0.133
relative viability ([1]; first compound 1.581 µM): 0.131
relative viability ([1]; first compound 5 µM): 0.116
relative viability ([2]; first compound 0.05 µM): 0.159
relative viability ([2]; first compound 0.1581 µM): 0.159
relative viability ([2]; first compound 0.5 µM): 0.149
relative viability ([2]; first compound 1.581 µM): 0.12
relative viability ([2]; first compound 5 µM): 0.138
relative viability ([3]; first compound 0.05 µM): 0.114
relative viability ([3]; first compound 0.1581 µM): 0.13
relative viability ([3]; first compound 0.5 µM): 0.0724
relative viability ([3]; first compound 1.581 µM): 0.0602
relative viability ([3]; first compound 5 µM): 0.131
relative viability ([4]; first compound 0.05 µM): 0.121
relative viability ([4]; first compound 0.1581 µM): 0.114
relative viability ([4]; first compound 0.5 µM): 0.114
relative viability ([4]; first compound 1.581 µM): 0.0558
relative viability ([4]; first compound 5 µM): 0.0892

H3255
relative viability ([1]; first compound 0.05 µM): 0.227
relative viability ([1]; first compound 0.1581 µM): 0.276
relative viability ([1]; first compound 0.5 µM): 0.268
relative viability ([1]; first compound 1.581 µM): 0.171
relative viability ([1]; first compound 5 µM): 0.195
relative viability ([2]; first compound 0.05 µM): 0.244
relative viability ([2]; first compound 0.1581 µM): 0.23
relative viability ([2]; first compound 0.5 µM): 0.192
relative viability ([2]; first compound 1.581 µM): 0.222
relative viability ([2]; first compound 5 µM): 0.203
relative viability ([3]; first compound 0.05 µM): 0.353
relative viability ([3]; first compound 0.1581 µM): 0.321
relative viability ([3]; first compound 0.5 µM): 0.292
relative viability ([3]; first compound 1.581 µM): 0.235
relative viability ([3]; first compound 5 µM): 0.254
relative viability ([4]; first compound 0.05 µM): 0.29
relative viability ([4]; first compound 0.1581 µM): 0.304
relative viability ([4]; first compound 0.5 µM): 0.258
relative viability ([4]; first compound 1.581 µM): 0.295
relative viability ([4]; first compound 5 µM): 0.325

HARA
relative viability ([1]; first compound 0.05 µM): 0.22
relative viability ([1]; first compound 0.1581 µM): 0.143
relative viability ([1]; first compound 0.5 µM): 0.197
relative viability ([1]; first compound 1.581 µM): 0.13
relative viability ([1]; first compound 5 µM): 0.0787
relative viability ([2]; first compound 0.05 µM): 0.0923
relative viability ([2]; first compound 0.1581 µM): 0.0752
relative viability ([2]; first compound 0.5 µM): 0.0784
relative viability ([2]; first compound 1.581 µM): 0.0856
relative viability ([2]; first compound 5 µM): 0.0671
relative viability ([3]; first compound 0.05 µM): 0.433
relative viability ([3]; first compound 0.1581 µM): 0.192
relative viability ([3]; first compound 0.5 µM): 0.13
relative viability ([3]; first compound 1.581 µM): 0.119
relative viability ([3]; first compound 5 µM): 0.13
relative viability ([4]; first compound 0.05 µM): 0.322
relative viability ([4]; first compound 0.1581 µM): 0.11
relative viability ([4]; first compound 0.5 µM): 0.193
relative viability ([4]; first compound 1.581 µM): 0.109
relative viability ([4]; first compound 5 µM): 0.102

HCC-15
relative viability ([1]; first compound 0.05 µM): 0.133
relative viability ([1]; first compound 0.1581 µM): 0.0661
relative viability ([1]; first compound 0.5 µM): 0.0658
relative viability ([1]; first compound 1.581 µM): 0.0754
relative viability ([1]; first compound 5 µM): 0.0698
relative viability ([2]; first compound 0.05 µM): 0.0704
relative viability ([2]; first compound 0.1581 µM): 0.087
relative viability ([2]; first compound 0.5 µM): 0.104
relative viability ([2]; first compound 1.581 µM): 0.0822
relative viability ([2]; first compound 5 µM): 0.0856
relative viability ([3]; first compound 0.05 µM): 0.299
relative viability ([3]; first compound 0.1581 µM): 0.259
relative viability ([3]; first compound 0.5 µM): 0.103
relative viability ([3]; first compound 1.581 µM): 0.102
relative viability ([3]; first compound 5 µM): 0.101
relative viability ([4]; first compound 0.05 µM): 0.151
relative viability ([4]; first compound 0.1581 µM): 0.23
relative viability ([4]; first compound 0.5 µM): 0.117
relative viability ([4]; first compound 1.581 µM): 0.0989
relative viability ([4]; first compound 5 µM): 0.0939

HCC-44
relative viability ([1]; first compound 0.05 µM): 0.335
relative viability ([1]; first compound 0.1581 µM): 0.234
relative viability ([1]; first compound 0.5 µM): 0.221
relative viability ([1]; first compound 1.581 µM): 0.19
relative viability ([1]; first compound 5 µM): 0.239
relative viability ([2]; first compound 0.05 µM): 0.341
relative viability ([2]; first compound 0.1581 µM): 0.142
relative viability ([2]; first compound 0.5 µM): 0.125
relative viability ([2]; first compound 1.581 µM): 0.149
relative viability ([2]; first compound 5 µM): 0.217
relative viability ([3]; first compound 0.05 µM): 0.863
relative viability ([3]; first compound 0.1581 µM): 0.918
relative viability ([3]; first compound 0.5 µM): 0.541
relative viability ([3]; first compound 1.581 µM): 0.517
relative viability ([3]; first compound 5 µM): 0.446
relative viability ([4]; first compound 0.05 µM): 0.869
relative viability ([4]; first compound 0.1581 µM): 0.987
relative viability ([4]; first compound 0.5 µM): 0.409
relative viability ([4]; first compound 1.581 µM): 0.491
relative viability ([4]; first compound 5 µM): 0.397
